A word on the inhibition: it is the percentage by which the read-out fell short of the control. A higher inhibition goes with a response far below the control.

For the test, the target named is Xanthine dehydrogenase/oxidase (Bos taurus, UniProt P80457). The test is described as follows: Inhibition of cow milk xanthine oxidase at 50 ug/mL. The conditions noted are these: cattle.
Chain of Xanthine dehydrogenase/oxidase (P80457 whole entry): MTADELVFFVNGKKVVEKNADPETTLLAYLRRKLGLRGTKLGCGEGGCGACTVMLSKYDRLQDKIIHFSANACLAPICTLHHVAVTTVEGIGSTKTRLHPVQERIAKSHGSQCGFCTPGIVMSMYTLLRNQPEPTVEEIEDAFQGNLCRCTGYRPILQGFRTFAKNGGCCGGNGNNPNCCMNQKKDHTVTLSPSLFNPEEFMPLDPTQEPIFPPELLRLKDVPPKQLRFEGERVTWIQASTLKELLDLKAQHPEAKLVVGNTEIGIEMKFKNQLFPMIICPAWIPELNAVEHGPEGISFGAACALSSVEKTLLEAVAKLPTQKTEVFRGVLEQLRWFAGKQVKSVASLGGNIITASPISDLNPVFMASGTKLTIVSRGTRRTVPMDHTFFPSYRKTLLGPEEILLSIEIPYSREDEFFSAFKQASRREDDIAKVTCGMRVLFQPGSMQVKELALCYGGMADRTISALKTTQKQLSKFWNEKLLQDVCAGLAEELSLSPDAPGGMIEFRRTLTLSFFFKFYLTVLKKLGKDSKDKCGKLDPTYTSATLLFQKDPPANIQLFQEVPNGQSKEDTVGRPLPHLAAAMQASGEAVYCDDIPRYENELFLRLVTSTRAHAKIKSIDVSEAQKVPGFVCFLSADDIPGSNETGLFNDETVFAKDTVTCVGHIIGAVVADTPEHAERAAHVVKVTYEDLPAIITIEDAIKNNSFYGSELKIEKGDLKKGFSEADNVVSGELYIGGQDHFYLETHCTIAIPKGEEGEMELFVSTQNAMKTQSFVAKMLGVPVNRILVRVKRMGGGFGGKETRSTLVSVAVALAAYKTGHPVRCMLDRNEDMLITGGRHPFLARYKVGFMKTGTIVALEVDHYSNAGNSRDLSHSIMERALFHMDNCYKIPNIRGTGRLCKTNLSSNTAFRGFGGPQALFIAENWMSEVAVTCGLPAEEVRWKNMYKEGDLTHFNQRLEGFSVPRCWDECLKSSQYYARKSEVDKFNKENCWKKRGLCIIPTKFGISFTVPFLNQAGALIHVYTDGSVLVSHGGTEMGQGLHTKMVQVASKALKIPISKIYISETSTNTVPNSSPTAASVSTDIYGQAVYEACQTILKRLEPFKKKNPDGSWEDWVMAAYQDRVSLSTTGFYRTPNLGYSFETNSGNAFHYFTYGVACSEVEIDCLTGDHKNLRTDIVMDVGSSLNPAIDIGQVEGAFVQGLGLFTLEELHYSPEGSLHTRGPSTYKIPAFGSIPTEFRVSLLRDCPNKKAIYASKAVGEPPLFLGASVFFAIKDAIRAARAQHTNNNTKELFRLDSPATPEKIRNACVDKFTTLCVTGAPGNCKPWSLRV
`COc1cc(-c2cc(=O)c3c(O)cc(O)cc3o2)ccc1O` [CHRYSOERIOL] gave an inhibition at 50 µg/mL of 61.5%. Compound `COc1cc(-c2cc(=O)c3c(O)c(OC)c(OC)cc3o2)ccc1O` [CIRSILENEOL] came in with an inhibition at 50 µg/mL of 1%. The figure for `C[C@@H]1O[C@@H](O[C@H]2[C@H](Oc3cc(O)c4c(=O)cc(-c5ccc(O)c(O)c5)oc4c3)O[C@H](CO)[C@@H](O)[C@@H]2O)[C@H](O)[C@H](O)[C@H]1O` [LONICERIN] is 20.1%. In the case of `O=C1C[C@@H](c2ccc(O[C@@H]3O[C@H](CO)[C@@H](O)[C@H](O)[C@H]3O)cc2)Oc2cc(O)ccc21` [LIQUIRITIN] it was 18%; in that of `O=C1C[C@@H](c2ccc(O)cc2)Oc2cc(O[C@@H]3O[C@H](CO)[C@@H](O)[C@H](O)[C@H]3O)cc(O)c21` [PRUNIN], 4.2%; in that of `COc1cc(-c2oc3cc(O)cc(O)c3c(=O)c2O[C@@H]2O[C@H](CO[C@@H]3O[C@@H](C)[C@H](O)[C@@H](O)[C@H]3O)[C@@H](O)[C@H](O)[C@H]2O)ccc1O` [NARCISSIN], 22.2%. In the case of `O=C1c2c(O)cc(O)cc2O[C@H](c2ccc(O)c(O)c2)[C@H]1O` [(+)-TAXIFOLIN] it was 17.8%. As to `O=c1c(O[C@@H]2O[C@@H](CO)[C@H](O)[C@H]2O)c(-c2ccc(O)cc2)oc2cc(O)cc(O)c12` [JUGLANIN], the inhibition at 50 µg/mL stood at 0%.

Take `O=c1c(O[C@@H]2O[C@H](CO)[C@H](O)[C@H](O)[C@H]2O)c(-c2ccc(O)cc2)oc2cc(O)cc(O)c12` [TRIFOLIN]: the inhibition at 50 µg/mL amounted to 16.1%. As for `O=C(O[C@H]1[C@H](Oc2c(-c3ccc(O)c(O)c3)oc3cc(O)cc(O)c3c2=O)O[C@H](CO)[C@@H](O)[C@@H]1O)c1cc(O)c(O)c(O)c1`, the inhibition at 50 µg/mL came out at 21%. `COc1cc(-c2coc3cc(O)c(OC)c(O)c3c2=O)cc(O)c1OC` [IRIGENIN] had an inhibition at 50 µg/mL of 0%. In the case of `O=c1cc(-c2ccc(O)cc2)oc2c([C@@H]3O[C@H](CO)[C@@H](O)[C@H](O)[C@H]3O)c(O)cc(O)c12` [VITEXIN] it was 0%; in that of `O=c1c(O)c(-c2ccc(O)cc2)oc2cc(O[C@@H]3O[C@H](CO)[C@@H](O)[C@H](O)[C@H]3O)cc(O)c12`, 0%. Turning to `COc1cc2oc(-c3ccc(O[C@@H]4O[C@H](CO)[C@@H](O)[C@H](O)[C@H]4O)cc3)cc(=O)c2c(O)c1OC` [CIRSIMARIN], 50 µg/mL produced 12.2% inhibition. In the case of `O=C(O)[C@H]1O[C@@H](Oc2cc3oc(-c4ccc(O)cc4)cc(=O)c3c(O)c2O)[C@H](O)[C@@H](O)[C@@H]1O` [SCUTELLARIN] it was 16.6%; in that of `COc1ccc(-c2cc(=O)c3c(O)cc(O[C@@H]4O[C@H](CO)[C@@H](O)[C@H](O)[C@H]4O)cc3o2)cc1` [TILIANINE], 0%; in that of `COc1ccc(-c2coc3cc(O)ccc3c2=O)cc1` [FORMONONETIN], 17.6%. As to `COc1ccc(-c2cc(=O)c3c(O)cc(O)c(-c4cc(-c5cc(=O)c6c(O)cc(OC)cc6o5)ccc4OC)c3o2)cc1` [SCIADOPITISIN], 50 µg/mL produced 0% inhibition. The figure for `COc1c(O)cc2oc(-c3ccc(O)c(O)c3)cc(=O)c2c1O` [EUPAFOLIN] is 49%; for `COc1cc(-c2oc3cc(O)cc(O)c3c(=O)c2O)ccc1O` [ISORHAMNETIN] it is 49%; for `O=c1cc(-c2ccccc2)oc2ccccc12` [FLAVONE] it is 15.4%. The figure for `CC(=O)Oc1cc(OC(C)=O)c2c(=O)c(OC(C)=O)c(-c3ccc(OC(C)=O)c(OC(C)=O)c3)oc2c1` is 0%; for `COc1cc(-c2coc3cc4c(c(OC)c3c2=O)OCO4)cc(OC)c1OC` [IRISFLORENTIN] it is 0%; for `COc1cc2oc(-c3ccc(O)cc3)c(O)c(=O)c2c(O)c1[C@@H]1O[C@H](CO)[C@@H](O)[C@H](O)[C@H]1O` [KEYAKININ] it is 0%. The figure for `CC(=O)Oc1cc(OC(C)=O)c2c(=O)cc(-c3ccc(OC(C)=O)c(OC(C)=O)c3)oc2c1` is 47.7%.
